Source: patent publication US5364842A (priority 1993, dated 1994)
Bridge positions count the residues as written; N and C are the ends. Square brackets hold non-standard residues; d marks the D form. Peptide text beside a SMILES is read from it. Hyp = O=C(O)[C@@H]1C[C@@H](O)CN1

Biological target: N-type or omega HVA neuronal calcium channels; calcium currents in N1E-115 neuroblastoma cells (Mus musculus, UniProt O55017)
Type: cell-based

Sequence of N-type or omega HVA neuronal calcium channels; calcium currents in N1E-115 neuroblastoma cells (O55017 whole entry): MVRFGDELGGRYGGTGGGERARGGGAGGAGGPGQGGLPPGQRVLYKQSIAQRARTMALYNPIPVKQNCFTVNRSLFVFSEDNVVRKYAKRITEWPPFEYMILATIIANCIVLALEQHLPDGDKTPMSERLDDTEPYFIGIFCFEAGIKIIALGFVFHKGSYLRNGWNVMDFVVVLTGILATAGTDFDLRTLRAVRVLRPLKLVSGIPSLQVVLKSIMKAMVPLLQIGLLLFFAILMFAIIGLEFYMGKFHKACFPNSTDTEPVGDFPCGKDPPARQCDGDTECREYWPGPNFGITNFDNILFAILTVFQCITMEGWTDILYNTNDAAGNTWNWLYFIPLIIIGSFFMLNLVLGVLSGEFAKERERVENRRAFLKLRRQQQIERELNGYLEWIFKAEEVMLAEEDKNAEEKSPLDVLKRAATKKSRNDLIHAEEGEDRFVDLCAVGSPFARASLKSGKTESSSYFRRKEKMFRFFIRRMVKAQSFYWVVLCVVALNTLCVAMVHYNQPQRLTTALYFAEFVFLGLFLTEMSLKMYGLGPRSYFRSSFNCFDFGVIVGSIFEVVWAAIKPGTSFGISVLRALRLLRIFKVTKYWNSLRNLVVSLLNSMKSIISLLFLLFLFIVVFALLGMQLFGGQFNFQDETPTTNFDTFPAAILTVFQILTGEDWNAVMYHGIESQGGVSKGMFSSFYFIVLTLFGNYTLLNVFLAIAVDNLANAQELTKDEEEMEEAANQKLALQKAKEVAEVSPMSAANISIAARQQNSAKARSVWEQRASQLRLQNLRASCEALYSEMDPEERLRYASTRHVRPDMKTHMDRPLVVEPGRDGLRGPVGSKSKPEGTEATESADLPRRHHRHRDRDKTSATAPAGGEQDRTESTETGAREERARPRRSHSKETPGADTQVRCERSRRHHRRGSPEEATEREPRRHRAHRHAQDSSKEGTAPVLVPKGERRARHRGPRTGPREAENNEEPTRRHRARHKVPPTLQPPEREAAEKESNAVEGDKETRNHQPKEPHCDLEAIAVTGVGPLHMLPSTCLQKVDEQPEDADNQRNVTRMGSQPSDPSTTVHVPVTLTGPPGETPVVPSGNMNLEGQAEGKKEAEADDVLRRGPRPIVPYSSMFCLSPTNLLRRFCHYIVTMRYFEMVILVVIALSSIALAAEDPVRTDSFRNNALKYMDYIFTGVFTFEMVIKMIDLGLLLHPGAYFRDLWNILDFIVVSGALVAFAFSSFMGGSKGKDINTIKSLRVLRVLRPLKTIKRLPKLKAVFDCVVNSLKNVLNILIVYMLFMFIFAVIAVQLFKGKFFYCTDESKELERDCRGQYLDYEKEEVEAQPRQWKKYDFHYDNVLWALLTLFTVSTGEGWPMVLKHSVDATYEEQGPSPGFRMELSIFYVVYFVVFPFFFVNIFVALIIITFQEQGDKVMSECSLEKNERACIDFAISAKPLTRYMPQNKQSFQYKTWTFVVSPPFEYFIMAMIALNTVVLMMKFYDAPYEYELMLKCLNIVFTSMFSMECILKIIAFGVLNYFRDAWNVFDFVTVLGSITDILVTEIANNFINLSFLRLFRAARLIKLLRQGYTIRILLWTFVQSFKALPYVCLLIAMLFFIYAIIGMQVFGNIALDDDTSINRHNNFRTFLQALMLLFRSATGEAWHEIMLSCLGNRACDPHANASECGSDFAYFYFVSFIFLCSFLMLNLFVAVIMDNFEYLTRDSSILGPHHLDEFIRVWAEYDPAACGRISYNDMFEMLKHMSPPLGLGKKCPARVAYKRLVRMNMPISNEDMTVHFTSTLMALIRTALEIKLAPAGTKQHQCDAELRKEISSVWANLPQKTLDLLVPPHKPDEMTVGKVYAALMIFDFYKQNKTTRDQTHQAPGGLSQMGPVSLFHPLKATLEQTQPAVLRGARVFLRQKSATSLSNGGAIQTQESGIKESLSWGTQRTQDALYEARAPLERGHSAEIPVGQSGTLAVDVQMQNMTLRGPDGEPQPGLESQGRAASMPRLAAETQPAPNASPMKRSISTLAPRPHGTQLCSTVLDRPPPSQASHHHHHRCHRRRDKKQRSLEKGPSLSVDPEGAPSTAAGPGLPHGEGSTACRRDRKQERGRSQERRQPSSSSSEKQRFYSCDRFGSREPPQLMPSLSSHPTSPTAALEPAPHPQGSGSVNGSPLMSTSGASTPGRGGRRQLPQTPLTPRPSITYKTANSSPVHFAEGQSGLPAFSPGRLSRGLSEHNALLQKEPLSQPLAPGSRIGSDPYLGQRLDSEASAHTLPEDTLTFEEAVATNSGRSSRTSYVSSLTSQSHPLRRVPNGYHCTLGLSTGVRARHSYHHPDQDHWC
Sequence of N-type or omega HVA neuronal calcium channels; calcium currents in N1E-115 neuroblastoma cells (O08532 25-956 partner limits assumed): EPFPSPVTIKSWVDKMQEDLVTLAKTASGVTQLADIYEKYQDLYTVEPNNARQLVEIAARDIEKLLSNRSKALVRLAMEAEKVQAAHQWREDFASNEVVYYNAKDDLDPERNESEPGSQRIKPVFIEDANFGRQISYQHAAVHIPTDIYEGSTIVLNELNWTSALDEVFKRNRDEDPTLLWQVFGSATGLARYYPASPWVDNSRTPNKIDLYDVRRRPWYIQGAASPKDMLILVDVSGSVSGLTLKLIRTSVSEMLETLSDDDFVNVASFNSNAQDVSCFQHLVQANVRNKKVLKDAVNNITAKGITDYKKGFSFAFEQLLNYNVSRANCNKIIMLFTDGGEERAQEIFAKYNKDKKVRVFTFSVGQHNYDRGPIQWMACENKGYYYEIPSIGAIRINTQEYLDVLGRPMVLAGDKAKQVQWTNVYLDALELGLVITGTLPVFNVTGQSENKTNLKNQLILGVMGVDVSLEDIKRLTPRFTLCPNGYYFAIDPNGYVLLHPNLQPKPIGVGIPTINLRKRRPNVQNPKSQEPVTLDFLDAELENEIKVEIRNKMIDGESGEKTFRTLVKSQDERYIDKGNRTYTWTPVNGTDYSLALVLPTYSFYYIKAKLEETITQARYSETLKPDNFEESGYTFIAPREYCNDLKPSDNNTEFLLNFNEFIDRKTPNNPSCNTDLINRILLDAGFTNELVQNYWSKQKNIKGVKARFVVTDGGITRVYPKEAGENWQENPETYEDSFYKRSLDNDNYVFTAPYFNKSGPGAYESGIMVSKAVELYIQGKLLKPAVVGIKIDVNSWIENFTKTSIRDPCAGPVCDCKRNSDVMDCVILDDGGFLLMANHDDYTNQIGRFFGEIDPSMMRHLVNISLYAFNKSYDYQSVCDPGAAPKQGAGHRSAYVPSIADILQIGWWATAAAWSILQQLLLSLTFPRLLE
Sequence of N-type or omega HVA neuronal calcium channels; calcium currents in N1E-115 neuroblastoma cells (O08532 957-1103 partner limits assumed): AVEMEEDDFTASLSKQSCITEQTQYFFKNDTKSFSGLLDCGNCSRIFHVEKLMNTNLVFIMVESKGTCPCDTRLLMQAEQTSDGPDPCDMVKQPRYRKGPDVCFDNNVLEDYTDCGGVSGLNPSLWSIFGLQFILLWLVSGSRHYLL

CC[C@H](C)[C@@H]1NC(=O)[C@H](CO)NC(=O)[C@H]([C@@H](C)O)NC(=O)[C@H](C(C)C)NC(=O)CNC(=O)[C@@H]2CSSC[C@@H]3NC(=O)[C@H](CCCNC(=N)N)NC(=O)CNC(=O)[C@H](CSSC[C@H](N)C(=O)N[C@@H](CCCNC(=N)N)C(=O)N[C@@H](CO)C(=O)N[C@@H](CO)C(=O)NCC(=O)N[C@@H](CO)C(=O)N4C[C@H](O)C[C@H]4C(=O)N2)NC(=O)[C@H](CSSC[C@@H](C(=O)N[C@H](C(N)=O)[C@@H](C)O)NC(=O)[C@H](CCCCN)NC(=O)CNC(=O)[C@H](CCCNC(=N)N)NC(=O)[C@H](Cc2ccc(O)cc2)NC3=O)NC1=O [SNX-157] (H-CRSSGS[Hyp]CGVTSICCGRCYRGKCT-NH2; disulfide 1-15, 8-18, 14-23)
IC50, inhibition of calcium currents in N1E-115 neuroblastoma cells: > 20 μM
